Laboratory results from patent US20260001914A1, “MACROCYCLIC PEPTIDES TARGETING KRAS” (Merck Sharp & Dohme LLC, priority 2022, published 2026).
*1 amine or outer side, *2 acyl side, *3 side chain or, on linkers, in order; H or OH if unused. Where a SMILES comes first, the peptide text is derived from it. Bridges are numbered along the chain shown (N, C = ends). [ ]: non-standard residue; d: D form. Ala(1-bicyclo(1.1.1)pentyl) = N[C@@H](CC12CC(C1)C2)C(=O)O; NMeNva(5-imidazol-1-yl) = CN[C@@H](CCCn1ccnc1)C(=O)O; Phe(4-guanidino) = N=C(N)Nc1ccc(C[C@H](N)C(=O)O)cc1; X22 = CNC(=N)N(C)CCC[C@@H](C(=O)[*:2])N(C)[*:1]; Ala(pyrimidin-5-yl) = N[C@@H](Cc1cncnc1)C(=O)O; NMe3Pal(6-Me) = CN[C@@H](Cc1ccc(C)nc1)C(=O)O; NMe3Pal(5-F) = CN[C@@H](Cc1cncc(F)c1)C(=O)O; NMePhe(3-Me) = CN[C@@H](Cc1cccc(C)c1)C(=O)O; NMeHis(τ-Me) = CN[C@@H](Cc1cn(C)cn1)C(=O)O; Phe(2,6-F2) = N[C@@H](Cc1c(F)cccc1F)C(=O)O; X27 = Cc1ccc(C[C@H](N[*:1])C(=O)[*:2])cn1; X13 = O=C([C@H](Cc1ccncc1F)N[*:1])[*:2]; Nle(5,5-F2) = CC(F)(F)CC[C@H](N)C(=O)O; X35 = CN([C@@H](CCCF)C(=O)[*:2])[*:1]; Ala(cPent) = N[C@@H](CC1CCCC1)C(=O)O; Phe(2-F) = N[C@@H](Cc1ccccc1F)C(=O)O; Abu(4,4-F2) = N[C@@H](CC(F)F)C(=O)O; NMe3Pal = CN[C@@H](Cc1cccnc1)C(=O)O; X1 = O=C(C12CC(CN[*:1])(C1)C2)[*:2]; Ala(cPr) = N[C@@H](CC1CC1)C(=O)O; NMeF = CN[C@@H](Cc1ccccc1)C(=O)O; PhLac = O=C(O)[C@@H](O)Cc1ccccc1; 3Pal = N[C@@H](Cc1cccnc1)C(=O)O; Ahp(2) = CCCCC[C@H](N)C(=O)O; Cba = N[C@@H](CC1CCC1)C(=O)O; hLeu = CC(C)CC[C@H](N)C(=O)O; NMeS = CN[C@@H](CO)C(=O)O; αMeC = C[C@](N)(CS)C(=O)O; NMeA = CN[C@@H](C)C(=O)O; Nle = CCCC[C@H](N)C(=O)O

target: phosphorylation levels of ERK1/2 in AsPC-1 (homozygous KRAS-G12D) cells (Homo sapiens, UniProt P01116, G12D); experiment: Cellular phospho-ERK assay in AsPC-1 cells (Alpha Screen), assay medium without fetal bovine serum; format: cell-based; conditions: phospho-ERK AlphaScreen, 18 h;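 also: signal taken as phospho-ERK over total ERK per well, both detected in one multiplex bead assay, EC50 from four-parameter logistic fit of dose-response curves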
Sequence (P01116 1-186 G12D): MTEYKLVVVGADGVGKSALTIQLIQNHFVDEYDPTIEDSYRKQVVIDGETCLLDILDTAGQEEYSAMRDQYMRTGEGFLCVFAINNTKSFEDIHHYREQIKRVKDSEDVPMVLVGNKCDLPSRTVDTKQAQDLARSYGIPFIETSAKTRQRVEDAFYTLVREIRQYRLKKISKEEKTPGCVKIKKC
Experimental: Assay plate was incubated at 37° C. 5% CO2 for the indicated length of time. […] Phosphorylated ERK and total ERK levels were detected by Alpha SureFire Ultra Multiplex pERK kit (PerkinElmer MPSU-PTERK) using 5 μL, acceptor bead mix and 5 μL donor bead mix, both prepared following the manufacturer's protocol. Plates were sealed using aluminum sealing tape (Costar 07-200-683) during incubation at ambient temperature with constant shaking at 300 rpm for 1 h (both acceptor and donor). Assay plates were read on a Envision Xcite Multilabel Reader (PerkinElmer 1040900) at ambient temperature, with emission at 535 nm (Total ERK) and emission at 615 nm (Phospho ERK). Ratio of pERK vs total ERK in each well was used as the final readout. Dose response curves and EC50 were analyzed using a 4-parameter logistic equation in GraphPad Prism software.

Row | SMILES | EC50 [µM]
1 | C[C@H]1C(=O)N[C@@H](Cc2cccnc2)C(=O)N[C@@H](CC2CC2)C(=O)N[C@@H](Cc2ccccc2F)C(=O)N[C@@H](CCC(C)(F)F)C(=O)N(C)[C@@H](Cc2ccccc2)C(=O)NCC23CC(C2)(C3)C(=O)O[C@@H](Cc2ccccc2)C(=O)N1C [compound 289, cyclo(FLac-NMeA-3Pal-cPrA-Phe2F-Nle3F2-NMeF-amBCP)] (cyclo([3Pal][Ala(cPr)][Phe(2-F)][Nle(5,5-F2)][NMeF][X1][PhLac][NMeA])) | 1.07
2 | CC(C)CC[C@@H]1NC(=O)[C@H](Cc2c(F)cccc2F)NC(=O)[C@H](CC2CCC2)NC(=O)[C@H](Cc2cncnc2)NC(=O)[C@H](C)N(C)C(=O)[C@H](Cc2ccccc2)OC(=O)C23CC(CNC(=O)[C@H](Cc4ccccc4)N(C)C1=O)(C2)C3 [compound 226, cyclo(FLac-NMeA-PyrimAla-cBuA-Phe26F2-hL-NMeF-amBCP)] (cyclo([Cba][Phe(2,6-F2)][hLeu][NMeF][X1][PhLac][NMeA][Ala(pyrimidin-5-yl)])) | 0.355
3 | CCCCC[C@@H]1NC(=O)[C@H](Cc2ccc(OC)cc2)NC(=O)[C@H](CC2CCC2)NC(=O)[C@H](Cc2ccc(NC(=N)N)cc2)NC(=O)[C@H](CCCN(C)C(=N)NC)N(C)C(=O)[C@H](Cc2ccccc2)NC(=O)CSC[C@@](C)(C(N)=O)NC(=O)[C@H](Cc2ccccc2)N(C)C1=O [compound 381, cyclo(F-NMeArg1MeMe-Phe4Gn-cBuA-TyrOMe-Ahp-NMeF-aMeCl-ClAc)] ({CH2CO}-F[X22][Phe(4-guanidino)][Cba]Y(Me)[Ahp(2)][NMeF][αMeC]-NH2; thioether N-8) | > 50.8
4 | CCCC[C@@H]1NC(=O)[C@H](Cc2cncnc2)NC(=O)[C@H](CO)N(C)C(=O)[C@H](Cc2ccccc2)OC(=O)C23CC(CNC(=O)[C@H](Cc4cccnc4)N(C)C(=O)[C@H](CCCC)NC(=O)[C@H](Cc4ccccc4F)NC1=O)(C2)C3 [compound 119, cyclo(FLac-NMeS-PyrimAla-Nle-Phe2F-Nle-NMe3Pal-amBCP)] (cyclo([NMe3Pal][X1][PhLac][NMeS][Ala(pyrimidin-5-yl)][Nle][Phe(2-F)][Nle])) | > 50.8
5 | Cc1cccc(C[C@H]2C(=O)NCC34CC(C3)(C4)C(=O)O[C@@H](Cc3ccccc3)C(=O)N(C)[C@@H](C)C(=O)N[C@@H](Cc3cncnc3)C(=O)N[C@@H](CC3CC3)C(=O)N[C@@H](Cc3ccncc3F)C(=O)N[C@@H](CCC(C)C)C(=O)N2C)c1 [compound 279, cyclo(FLac-NMeA-PyrimAla-cPrA-4Pal2F-hL-NMePhe3Me-amBCP)] (cyclo([Ala(cPr)][X13][hLeu][NMePhe(3-Me)][X1][PhLac][NMeA][Ala(pyrimidin-5-yl)])) | 4.02
6 | CCCCC[C@@H]1NC(=O)[C@H](Cc2ccc(OC)cc2)NC(=O)[C@H](CC2CCC2)NC(=O)[C@H](Cc2cccnc2)NC(=O)[C@H](CCCNC(=N)N)NC(=O)[C@H](Cc2ccccc2)NC(=O)CSC[C@@](C)(C(N)=O)NC(=O)[C@H](Cc2ccc(C)nc2)N(C)C1=O [compound 377, cyclo(F-R-3Pal-cBuA-TyrOMe-Ahp-NMe3Pal4Me-aMeCl-ClAc)] ({CH2CO}-FR[3Pal][Cba]Y(Me)[Ahp(2)][NMe3Pal(6-Me)][αMeC]-NH2; thioether N-8) | > 50.8
7 | CCCC[C@@H]1NC(=O)[C@H](Cc2ccccc2)NC(=O)[C@H](C)N(C)C(=O)[C@H](Cc2ccccc2)OC(=O)C23CC(CNC(=O)[C@H](Cc4ccccc4)N(C)C(=O)[C@H](CCCC)NC(=O)[C@H](Cc4ccccc4F)NC1=O)(C2)C3 [compound 305, cyclo(FLac-NMeA-F-Nle-Phe2F-Nle-NMeF-amBCP)] (cyclo(F[Nle][Phe(2-F)][Nle][NMeF][X1][PhLac][NMeA])) | > 50.8
8 | CCCCC[C@@H]1NC(=O)[C@H](Cc2ccc(OC)cc2)NC(=O)[C@H](CC2CCC2)NC(=O)[C@H](Cc2ccc(N3CCC[C@H]3CN)cc2)NC(=O)[C@H](CCCNC(=N)N)NC(=O)[C@H](Cc2ccccc2)NC(=O)CSC[C@@](C)(C(N)=O)NC(=O)[C@H](Cc2ccccc2)N(C)C1=O [compound 392, cyclo(F-R-Phe4SamPyrr-cBuA-TyrOMe-Ahp-NMeF-aMeCl-ClAc)] | > 50.8
9 | CC(C)CC[C@@H]1NC(=O)[C@H](Cc2ccccc2F)NC(=O)[C@H](CC2CC2)NC(=O)[C@H](Cc2cncnc2)NC(=O)[C@H](CCCF)N(C)C(=O)[C@H](Cc2ccccc2)OC(=O)C23CC(CNC(=O)[C@H](Cc4ccccc4)N(C)C1=O)(C2)C3 [compound 216, cyclo(FLac-NMeNvaF-PyrimAla-cPrA-Phe2F-hL-NMeF-amBCP)] (cyclo([Ala(cPr)][Phe(2-F)][hLeu][NMeF][X1][PhLac][X35][Ala(pyrimidin-5-yl)])) | 1.23
10 | C[C@H]1C(=O)N[C@@H](Cc2cccnc2)C(=O)N[C@@H](CC2CCC2)C(=O)N[C@@H](Cc2ccccc2F)C(=O)N[C@@H](CCC(C)(F)F)C(=O)N(C)[C@@H](Cc2cncc(F)c2)C(=O)NCC23CC(C2)(C3)C(=O)O[C@@H](Cc2ccccc2)C(=O)N1C [compound 285, cyclo(FLac-NMeA-3Pal-cBuA-Phe2F-Nle3F2-NMe3Pal5F-amBCP)] (cyclo([3Pal][Cba][Phe(2-F)][Nle(5,5-F2)][NMe3Pal(5-F)][X1][PhLac][NMeA])) | 5.78
11 | CCCC[C@@H]1NC(=O)[C@H](Cc2ccccc2F)NC(=O)[C@H](CC2CCCC2)NC(=O)[C@H](Cc2cncnc2)NC(=O)[C@H](C)N(C)C(=O)[C@H](Cc2ccccc2)OC(=O)C23CC(CNC(=O)[C@H](Cc4cccnc4)N(C)C1=O)(C2)C3 [compound 126, cyclo(FLac-NMeA-PyrimAla-cPeA-Phe2F-Nle-NMe3Pal-amBCP)] (cyclo([Ala(cPent)][Phe(2-F)][Nle][NMe3Pal][X1][PhLac][NMeA][Ala(pyrimidin-5-yl)])) | 17.4
12 | CCCC[C@@H]1NC(=O)[C@H](Cc2cccnc2)NC(=O)[C@H](C)N(C)C(=O)[C@H](Cc2ccc(C)nc2)NC(=O)C23CC(CNC(=O)[C@H](Cc4cccnc4)N(C)C(=O)[C@H](CCCC)NC(=O)[C@H](Cc4ccccc4F)NC1=O)(C2)C3 [compound 164, cyclo(4Me3Pal-NMeA-3Pal-Nle-Phe2F-Nle-NMe3Pal-amBCP)] (cyclo([3Pal][Nle][Phe(2-F)][Nle][NMe3Pal][X1][X27][NMeA])) | > 50.8
13 | CCCCC[C@@H]1NC(=O)[C@H](Cc2ccc(OC)cc2)NC(=O)[C@H](CC2CCC2)NC(=O)[C@H](Cc2cccnc2)NC(=O)[C@H](CCCNC(=N)N)NC(=O)[C@H](Cc2ccccc2)NC(=O)CSC[C@@](C)(C(N)=O)NC(=O)[C@H](Cc2cn(C)cn2)N(C)C1=O [compound 378, cyclo(F-R-3Pal-cBuA-TyrOMe-Ahp-NMeHis1Me-aMeCl-ClAc)] ({CH2CO}-FR[3Pal][Cba]Y(Me)[Ahp(2)][NMeHis(τ-Me)][αMeC]-NH2; thioether N-8) | > 50.8
14 | C[C@H]1C(=O)N[C@@H](Cc2cncnc2)C(=O)N[C@@H](CC2CC2)C(=O)N[C@@H](Cc2ccccc2F)C(=O)N[C@@H](CC(F)F)C(=O)N(C)[C@@H](Cc2ccccc2)C(=O)NCC23CC(C2)(C3)C(=O)O[C@@H](Cc2ccccc2)C(=O)N1C [compound 271, cyclo(FLac-NMeA-PyrimAla-cPrA-Phe2F-AbuF2-NMeF-amBCP)] (cyclo([Ala(cPr)][Phe(2-F)][Abu(4,4-F2)][NMeF][X1][PhLac][NMeA][Ala(pyrimidin-5-yl)])) | 36.6
15 | CC(C)CC[C@@H]1NC(=O)[C@H](Cc2ccccc2F)NC(=O)[C@H](CC23CC(C2)C3)NC(=O)[C@H](Cc2cncnc2)NC(=O)[C@H](C)N(C)C(=O)[C@H](Cc2ccccc2)OC(=O)C23CC(CNC(=O)[C@H](Cc4ccccc4)N(C)C1=O)(C2)C3 [compound 272, cyclo(FLac-NMeA-PyrimAla-AlaPent-Phe2F-hL-NMeF-amBCP)] (cyclo([NMeA][Ala(pyrimidin-5-yl)][Ala(1-bicyclo(1.1.1)pentyl)][Phe(2-F)][hLeu][NMeF][X1][PhLac])) | 2.95
16 | CCCCC[C@@H]1NC(=O)[C@H](Cc2ccc(OC)cc2)NC(=O)[C@H](CC2CCC2)NC(=O)[C@H](Cc2ccc(N3CCC[C@@H]3CN)cc2)NC(=O)[C@H](CCCNC(=N)N)NC(=O)[C@H](Cc2ccccc2)NC(=O)CSC[C@@](C)(C(N)=O)NC(=O)[C@H](Cc2ccccc2)N(C)C1=O [compound 391, cyclo(F-R~Phe4RamPyrr-cBuA-TyrOMe-Abp-NMeF-aMeCl-ClAc)] | > 50.8
17 | CCCC[C@@H]1NC(=O)[C@H](Cc2cccnc2)NC(=O)[C@H](COC)N(C)C(=O)[C@H](Cc2ccccc2)OC(=O)C23CC(CNC(=O)[C@H](Cc4cccnc4)N(C)C(=O)[C@H](CCCC)NC(=O)[C@H](Cc4ccccc4F)NC1=O)(C2)C3 [compound 255, cyclo(FLac-nMeSMe-3Pal-Nle-Phe2F-Nle-NMe3Pal-amBCP)] (cyclo([3Pal][Nle][Phe(2-F)][Nle][NMe3Pal][X1][PhLac][NMeS](Me))) | > 50.8
18 | CCCC[C@@H]1NC(=O)[C@H](Cc2cncnc2)NC(=O)[C@H](CCCn2ccnc2)N(C)C(=O)[C@H](Cc2ccccc2)OC(=O)C23CC(CNC(=O)[C@H](Cc4cccnc4)N(C)C(=O)[C@H](CCCC)NC(=O)[C@H](Cc4ccccc4F)NC1=O)(C2)C3 [compound 240, cyclo(FLac-NMeNvalmid-PyrimAla-Nle-Phe2F-Nle-NMe3Pal-amBCP)] (cyclo([NMe3Pal][X1][PhLac][NMeNva(5-imidazol-1-yl)][Ala(pyrimidin-5-yl)][Nle][Phe(2-F)][Nle])) | > 50.8
19 | CCCC[C@@H]1NC(=O)[C@H](Cc2cncnc2)NC(=O)[C@H](CCCn2ccnc2)N(C)C(=O)[C@H](Cc2ccccc2)OC(=O)C23CC(CNC(=O)[C@H](Cc4ccccc4)N(C)C(=O)[C@H](CCCC)NC(=O)[C@H](Cc4ccccc4F)NC1=O)(C2)C3 (single isomer, unassigned) [compound 223, cyclo(FLac-NMeNvalmid-PyrimAla-Nle-Phe2F-Nle-NMeF-amBCP)] | 11.1
20 | CCCC[C@@H]1NC(=O)[C@H](Cc2cccnc2)NC(=O)[C@H](CCCN(C)C(=N)NC)N(C)C(=O)[C@H](Cc2ccccc2)OC(=O)CSC[C@@](C)(C(N)=O)NC(=O)[C@H](Cc2cccnc2)N(C)C(=O)[C@H](CCCC)NC(=O)[C@H](Cc2ccccc2F)NC1=O [compound 396, cyclo(FLac-NMeArg1MeMe-3Pal-Nle-Phe2F-Nle-NMe3Pal-aMeCl-ClAc)] ({CH2CO}-[PhLac][X22][3Pal][Nle][Phe(2-F)][Nle][NMe3Pal][αMeC]-NH2; thioether N-8) | > 50.8
